The results in this text go back to the supplement of paper PMC10307832.

Holding throughout (test): relative viability (nuclei count vs DMSO), 5 days (fraction); higher = more cells survive
Compound in experiment [1]: CC(C)C[C@H](NC(=O)[C@H](Cc1ccccc1)NC(=O)c1cnccn1)B(O)O [Bortezomib] + CCNC(=O)c1noc(-c2cc(C(C)C)c(O)cc2O)c1-c1ccc(CN2CCOCC2)cc1 [Luminespib] (partner 0.01 µM)
The method in brief:
(§1)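 One day after seeding in 1536-well plates, lung cancer cell lines were dosed by pin tool. Dosing was either single-drug or a fixed anchor-drug dose plus five library-drug doses (not always all listed) in √10 steps. After 5 days, nuclei were stained in one fix-and-stain step and counted on 4× images, and relative viability is the nuclei count of treated wells over that of vehicle wells, given as the median of duplicate plates.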

Compound in experiment [2]: CC1=CC(=NN1)NC2=CC(=NC(=N2)/C=C/C3=CC=CC=C3)N4CCN(CC4)C + Cc1nc(Nc2ncc(C(=O)Nc3c(C)cccc3Cl)s2)cc(N2CCN(CCO)CC2)n1 [Dasatinib] (partner 0.075 µM)
The method in brief: as §1

Compound in experiment [3]: CC1=CC(=NN1)NC2=CC(=NC(=N2)/C=C/C3=CC=CC=C3)N4CCN(CC4)C + Nc1ncn([C@H]2C[C@H](O)[C@@H](CO)O2)c(=O)n1 [Decitabine] (partner 2 µM)
A digest of the protocol: as §1

Compound in experiment [4]: CC(C)C[C@H](NC(=O)[C@H](Cc1ccccc1)NC(=O)c1cnccn1)B(O)O [Bortezomib] + CS(=O)(=O)CCNCc1ccc(-c2ccc3ncnc(Nc4ccc(OCc5cccc(F)c5)c(Cl)c4)c3c2)o1 [Lapatinib] (partner 2 µM)
A digest of the protocol:
as §1

Turning to HCC-15, the relative viability is 0.322 in experiment [1] (first compound 0.0002 µM); 0.343 in experiment [1] (first compound 0.000632 µM); 0.405 in experiment [1] (first compound 0.002 µM); 0.0965 in experiment [1] (first compound 0.006325 µM); 0.0909 in experiment [1] (first compound 0.02 µM); 0.634 in experiment [2] (first compound 0.08 µM). Besides, the relative viability in experiment [2] (first compound 0.253 µM) was 0.672; in experiment [2] (first compound 0.8 µM), 0.479; in experiment [2] (first compound 2.53 µM), 0.0991; in experiment [2] (first compound 8 µM) it was 0.0639; in experiment [3] (first compound 0.08 µM), 0.592; in experiment [3] (first compound 0.253 µM), 0.654. Moreover, the relative viability in experiment [3] (first compound 0.8 µM) was 0.655; in experiment [3] (first compound 2.53 µM), 0.108; in experiment [3] (first compound 8 µM) it was 0.0983; in experiment [4] (first compound 0.0002 µM) it was 0.824; in experiment [4] (first compound 0.000632 µM), 0.943; in experiment [4] (first compound 0.002 µM), 0.817. Also, the relative viability in experiment [4] (first compound 0.006325 µM) came out at 0.38; in experiment [4] (first compound 0.02 µM), 0.0867.

Consider HCC-44, for which the relative viability in experiment [1] (first compound 0.0002 µM) is 0.983; in experiment [1] (first compound 0.000632 µM), 0.984; in experiment [1] (first compound 0.002 µM), 0.585; in experiment [1] (first compound 0.006325 µM), 0.187; in experiment [1] (first compound 0.02 µM), 0.197; in experiment [3] (first compound 0.08 µM), 0.967. Also, the relative viability was 0.965 in experiment [3] (first compound 0.253 µM); 0.909 in experiment [3] (first compound 0.8 µM); 0.87 in experiment [3] (first compound 2.53 µM); 0.845 in experiment [3] (first compound 8 µM); 0.977 in experiment [4] (first compound 0.0002 µM); 1.02 in experiment [4] (first compound 0.000632 µM). In addition, the relative viability in experiment [4] (first compound 0.002 µM) is 0.953; in experiment [4] (first compound 0.006325 µM) it was 0.658; in experiment [4] (first compound 0.02 µM), 0.118.

Turning to HCC-78, the relative viability in experiment [2] (first compound 0.08 µM) came out at 0.444; in experiment [2] (first compound 0.253 µM), 0.436; in experiment [2] (first compound 0.8 µM) it was 0.469; in experiment [2] (first compound 2.53 µM), 0.234; in experiment [2] (first compound 8 µM), 0.221; in experiment [3] (first compound 0.08 µM) it was 0.585. Moreover, the relative viability is 0.624 in experiment [3] (first compound 0.253 µM); 0.694 in experiment [3] (first compound 0.8 µM); 0.472 in experiment [3] (first compound 2.53 µM); 0.292 in experiment [3] (first compound 8 µM); 0.899 in experiment [4] (first compound 0.0002 µM); 0.791 in experiment [4] (first compound 0.000632 µM). In addition, the relative viability in experiment [4] (first compound 0.002 µM) came out at 0.715; in experiment [4] (first compound 0.006325 µM), 0.826; in experiment [4] (first compound 0.02 µM) it was 0.153.

Consider HCC-366, for which the relative viability in experiment [2] (first compound 0.08 µM) was 0.708; in experiment [2] (first compound 0.253 µM), 0.645; in experiment [2] (first compound 0.8 µM) it was 0.544; in experiment [2] (first compound 2.53 µM) it was 0.0369; in experiment [2] (first compound 8 µM), 0.0193; in experiment [3] (first compound 0.08 µM), 0.35. In addition, the relative viability in experiment [3] (first compound 0.253 µM) amounted to 0.368; in experiment [3] (first compound 0.8 µM), 0.318; in experiment [3] (first compound 2.53 µM), 0.0513; in experiment [3] (first compound 8 µM), 0.0463; in experiment [4] (first compound 0.0002 µM), 0.861; in experiment [4] (first compound 0.000632 µM), 1.01. Besides, the relative viability in experiment [4] (first compound 0.002 µM) is 1.03; in experiment [4] (first compound 0.006325 µM), 0.875; in experiment [4] (first compound 0.02 µM) it was 0.0176.

Consider HCC-827, for which the relative viability in experiment [1] (first compound 0.0002 µM) stood at 0.533; in experiment [1] (first compound 0.000632 µM), 0.588; in experiment [1] (first compound 0.002 µM), 0.415; in experiment [1] (first compound 0.006325 µM) it was 0.152; in experiment [1] (first compound 0.02 µM), 0.122; in experiment [2] (first compound 0.08 µM) it was 0.318. Further, the relative viability in experiment [2] (first compound 0.253 µM) was 0.255; in experiment [2] (first compound 0.8 µM) it was 0.282; in experiment [2] (first compound 2.53 µM), 0.228; in experiment [2] (first compound 8 µM), 0.373; in experiment [3] (first compound 0.08 µM), 0.196; in experiment [3] (first compound 0.253 µM), 0.353. Further, the relative viability in experiment [3] (first compound 0.8 µM) was 0.337; in experiment [3] (first compound 2.53 µM), 0.285; in experiment [3] (first compound 8 µM), 0.189; in experiment [4] (first compound 0.0002 µM) it was 0.217; in experiment [4] (first compound 0.000632 µM), 0.183; in experiment [4] (first compound 0.002 µM), 0.187. Also, the values for the relative viability in experiment [4] (first compound 0.006325 µM) and in experiment [4] (first compound 0.02 µM) were 0.222 and 0.15, respectively.

HOP-62: the relative viability came to 0.921 in experiment [1] (first compound 0.0002 µM); 0.907 in experiment [1] (first compound 0.000632 µM); 0.67 in experiment [1] (first compound 0.002 µM); 0.288 in experiment [1] (first compound 0.006325 µM); 0.0887 in experiment [1] (first compound 0.02 µM); 0.605 in experiment [2] (first compound 0.08 µM). In addition, the relative viability amounted to 0.72 in experiment [2] (first compound 0.253 µM); 0.772 in experiment [2] (first compound 0.8 µM); 0.355 in experiment [2] (first compound 2.53 µM); 0.197 in experiment [2] (first compound 8 µM); 0.203 in experiment [3] (first compound 0.08 µM); 0.191 in experiment [3] (first compound 0.253 µM). The relative viability in experiment [3] (first compound 0.8 µM) was 0.212; in experiment [3] (first compound 2.53 µM), 0.197; in experiment [3] (first compound 8 µM), 0.166; in experiment [4] (first compound 0.0002 µM) it was 0.953; in experiment [4] (first compound 0.000632 µM) it was 1.01; in experiment [4] (first compound 0.002 µM) it was 1.04. Further, the relative viability in experiment [4] (first compound 0.006325 µM) is 0.283; in experiment [4] (first compound 0.02 µM), 0.0578.

In the case of IA-LM, the relative viability in experiment [4] (first compound 0.0002 µM) is 0.828; in experiment [4] (first compound 0.000632 µM) it was 0.851; in experiment [4] (first compound 0.002 µM) it was 0.432; in experiment [4] (first compound 0.006325 µM), 0.0336; in experiment [4] (first compound 0.02 µM), 0.0551.

LC-2-ad: the relative viability was determined as 0.972 in experiment [1] (first compound 0.0002 µM); 1.06 in experiment [1] (first compound 0.000632 µM); 0.64 in experiment [1] (first compound 0.002 µM); 0.226 in experiment [1] (first compound 0.006325 µM); 0.214 in experiment [1] (first compound 0.02 µM); 0.611 in experiment [2] (first compound 0.08 µM). Also, the relative viability in experiment [2] (first compound 0.253 µM) was 0.367; in experiment [2] (first compound 0.8 µM), 0.257; in experiment [2] (first compound 2.53 µM), 0.182; in experiment [2] (first compound 8 µM), 0.134; in experiment [3] (first compound 0.08 µM) it was 0.821; in experiment [3] (first compound 0.253 µM), 0.809. Also, the relative viability in experiment [3] (first compound 0.8 µM) was determined as 0.744; in experiment [3] (first compound 2.53 µM), 0.463; in experiment [3] (first compound 8 µM), 0.187; in experiment [4] (first compound 0.0002 µM), 0.73; in experiment [4] (first compound 0.002 µM) it was 0.928; in experiment [4] (first compound 0.006325 µM), 0.258. Further, the relative viability in experiment [4] (first compound 0.02 µM) is 0.1.
